Measurements as given in PMC6369673, “Silent catalytic promiscuity in the high-fidelity terpene cyclase δ-cadinene synthase” (Organic & Biomolecular Chemistry, 2019).
Where a name gives a salt, the structure may show the parent alone. Read-outs that look alike come from different tables or passages of the source.

Assays:
[1] = target: DCS; set-up: method as in PMID 22397618; settings: cited from earlier work
[2] = target: T1, amorpha-4,11-diene synthase (ADS) (Artemisia annua, UniProt Q9AR04); assay: Inhibition of amorpha-4,11-diene synthase, radiolabelled FDP assay; format: biochemical
T1 construct: made in house
Protocol: (§1) Recombinant AS and ADS were prepared and purified according to previously published procedures[17],[18] and both (R)-11 and (S)-11 were tested as inhibitors using a standard radiolabelled assay involving conversion of tritium labelled FDP by each enzyme and scintillation counting of the pentane extractable products.[5b] Terpene synthases are known to efficiently bind cation-PPi pairs and inhibition was assessed both in the presence and absence of 250 μM diphosphate (Table 1). Synergistic inhibition of aza-analogues 11 with diphosphate has been observed previously for a variety of other terpene synthases.[5d],[13c],[14]
(§2) Kinetic data were fitted by non-linear regression to the Michaelis–Menten equation (v0 = kcat[E][S]/(KM + [S]). The mode of inhibition was determined by inspection of double reciprocal plots and observed to be competitive in all cases where inhibition was significant at low concentrations of 11. KI was determined from a plot of inhibitor concentration versus K′M/(kcat[E]) where K′M = KM(1 + [I]/KI). […]
(§3) 2. Steady-state kinetics of DCS-His6, ADS and AS.
(§4) Kinetic assays were carried out according to the standard, linear range, micro-assay procedure previously described.5 The reaction mixtures containing buffer, FDP and protein were prepared on ice in a total volume of 250 µL and were overlaid with ca. 0.8 mL of HPLC-grade hexane prior to incubation. The assay mixtures were initiated by addition of enzyme and incubated at room temp (30 °C) for 10 min. The reactions were immediately ice-cooled and quenched by addition of 200 µL of 100 mM EDTA (pH 8.5) and brief vortexing. The hexane overlay and two additional 1 mL hexane extracts were passed through a short pipette column containing silica gel. The column was washed with additional hexane (1 mL) and the combined filtrates were analysed by liquid scintillation counting using 15 mL of scintillation cocktail Ecoscint O. Steady-State kinetic parameters for DCS-His6 and mutants were obtained by direct fitting of the data to the Michaelis-Menten equation by nonlinear least squares regression in conjunction with the graphical procedures developed by Lineweaver-Burk using the commercial SigmaPlot package (Systat Software).

[3] = target: T2, aristolochene synthase from Penicillium roqueforti (AS) (Penicillium roqueforti, UniProt Q03471); assay: Inhibition of aristolochene synthase, radiolabelled FDP assay; format: biochemical
T2 construct: made in house
Protocol: as §1, §2, §3, §4

[4] = target: T3, δ-cadinene synthase (DCS-His6) (Gossypium arboreum, UniProt Q39761); assay: Inhibition of δ-cadinene synthase, radiolabelled FDP assay; format: biochemical
T3 construct: hexahistidine (His6) (C); made in house; host or cells: E. coli BL-21 (DE3)
T3 sequence (Q39761 1-554): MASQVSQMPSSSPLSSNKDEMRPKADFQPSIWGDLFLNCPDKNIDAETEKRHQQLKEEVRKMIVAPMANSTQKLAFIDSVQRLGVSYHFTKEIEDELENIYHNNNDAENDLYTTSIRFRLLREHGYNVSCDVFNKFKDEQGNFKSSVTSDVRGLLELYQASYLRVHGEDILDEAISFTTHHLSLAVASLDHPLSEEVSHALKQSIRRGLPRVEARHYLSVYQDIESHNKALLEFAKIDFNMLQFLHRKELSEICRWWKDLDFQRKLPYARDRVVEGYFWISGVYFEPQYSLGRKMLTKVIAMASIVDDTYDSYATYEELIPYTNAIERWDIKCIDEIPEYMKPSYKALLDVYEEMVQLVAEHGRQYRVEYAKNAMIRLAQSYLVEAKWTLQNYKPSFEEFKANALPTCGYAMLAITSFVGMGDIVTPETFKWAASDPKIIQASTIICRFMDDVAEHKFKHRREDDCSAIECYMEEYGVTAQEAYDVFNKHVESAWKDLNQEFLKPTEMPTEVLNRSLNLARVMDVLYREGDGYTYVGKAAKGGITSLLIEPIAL
Protocol: as §1
Kinetic data were fitted by non-linear regression to the Michaelis–Menten equation (v0 = kcat[E][S]/(KM + [S]). The mode of inhibition was determined by inspection of double reciprocal plots and observed to be competitive in all cases where inhibition was significant at low concentrations of 11. KI was determined from a plot of inhibitor concentration versus K′M/(kcat[E]) where K′M = KM(1 + [I]/KI).
Recombinant DCS was generated with a C-terminal hexahistidine tag (DCS-His6) as previously described.[19] Inhibition assays were carried out using the same protocol used for AS and ADS. […] DCS clearly requires a cation–anion pair in its active site for effective inhibition by aza-analogues. Our results provide strong evidence for 1,6-cyclase activity for DCS. […]
as §3, §4

[5] = +250 μM PPi, read-out: K i (μM) (+250 μM PPi)
[6] = K i (μM) (+250 μM PPi), +250 μM PPi

T1 sequence (Q9AR04 whole entry): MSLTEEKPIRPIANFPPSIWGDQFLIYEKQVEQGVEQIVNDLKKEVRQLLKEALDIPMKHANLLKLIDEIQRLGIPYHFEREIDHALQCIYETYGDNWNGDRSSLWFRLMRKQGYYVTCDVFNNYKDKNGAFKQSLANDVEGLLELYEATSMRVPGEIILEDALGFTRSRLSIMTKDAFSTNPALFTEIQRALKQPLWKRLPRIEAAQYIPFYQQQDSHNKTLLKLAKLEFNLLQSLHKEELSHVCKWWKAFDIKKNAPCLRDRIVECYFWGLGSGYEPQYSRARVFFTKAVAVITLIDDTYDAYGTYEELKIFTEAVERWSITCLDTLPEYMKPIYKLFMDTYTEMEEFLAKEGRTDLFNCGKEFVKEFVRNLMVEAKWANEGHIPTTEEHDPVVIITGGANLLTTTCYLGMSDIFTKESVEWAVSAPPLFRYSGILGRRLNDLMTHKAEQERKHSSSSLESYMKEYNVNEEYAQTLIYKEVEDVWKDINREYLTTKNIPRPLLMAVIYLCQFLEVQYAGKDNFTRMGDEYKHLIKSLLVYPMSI
T2 sequence (Q03471 whole entry): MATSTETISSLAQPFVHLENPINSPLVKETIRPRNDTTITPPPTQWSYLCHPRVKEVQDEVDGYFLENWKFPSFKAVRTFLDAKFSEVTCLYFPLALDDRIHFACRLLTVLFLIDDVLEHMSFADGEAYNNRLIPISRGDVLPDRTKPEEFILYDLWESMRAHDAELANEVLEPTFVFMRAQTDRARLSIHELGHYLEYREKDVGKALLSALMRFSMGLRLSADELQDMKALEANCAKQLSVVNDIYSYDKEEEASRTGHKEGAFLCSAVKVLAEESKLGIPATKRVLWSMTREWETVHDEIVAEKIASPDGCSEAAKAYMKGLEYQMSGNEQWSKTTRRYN

| Compound | Ki ([1]; DCS, 6F-FDP as substrate analogue) [µM] | Products when incubated with DCS ([1]; pentane-extractable products) | Ki [2, 5] [µM] | Ki ([2]; absence of PPi, read-out: K i) [µM] | Ki [3, 6] [µM] | Ki ([3]; K i (μM), absence of PPi) [µM] | Ki [4, 5] [µM] | Ki ([4]; absence of PPi, read-out: K i) [µM] | Inhibition in words ([4]; in the absence of PPi) | melting point [°C] |
| --- | --- | --- | --- | --- | --- | --- | --- | --- | --- | --- |
| CC(C)=CCCC(C)=C(F)CCC(C)=CCOP(=O)(O)OP(=O)(O)O [6F-FDP, 6-fluorofarnesyl diphosphate] | 2.4 | no detectable pentane-extractable products |  |  |  |  |  |  |  |  |
| CC(C)=CCCN(C)[C@@H]1CC=C(C)CC1 [(S)-11] |  |  | 1.5 ± 0.5 | 25 ± 5 | 255 ± 23 | 295 ± 23 | 3.44 ± 1.43 | 273 ± 77 |  |  |
| CC(C)=CCCN(C)[C@H]1CC=C(C)CC1 [(R)-11] |  |  | 3.7 ± 1.9 | 50 ± 17 | 489 ± 62 | 472 ± 48 | 2.5 ± 0.5 | 1700 ± 300 | weak inhibitor |  |
| CC(C)=CCCN(C)[C@@H]1CC=C(C)CC1 (as salt: hydrochloride) [(S)-11] |  |  |  |  |  |  |  |  |  | 131 to 133 |
